The subject of this test is Malassezia furfur. Description: ΣFIC assay against Malassezia furfur (in-vitro susceptibility testing, alamar blue). The class given is cell-based. As to conditions: CBS1878, active alone, M. furfur CBS 1878 in Pityrosporum Broth, 32° C., complete growth inhibition by alamar blue, read-out: Minimum Inhibition Concentration (MIC). As for the experimental part: A brief description of the method is given below.
Methods: ΣFIC Assay Against Malassezia furfur
They are then incubated at 32° C. for 48 hrs with shaking. Then, 1 ml of the first broth culture is transferred into 9 ml of fresh PB and incubated at 32° C. for 48 hrs with shaking. The final culture should contain 2 to 6×10^6 cells/ml. This is achieved by diluting using PB to 5*10^5 cell/ml.
Binary combinations of ZPTO and the testing compound were prepared in 96-well plate by mixing 20 μl of zinc pyrithione solution with 20 μl of testing compound. The solution in each well were further mixed with 160 μl of PB and 20 μl of M. furfur. The final cell density in the testing plate is around 5*10^4 cell/ml, and the final concentration of actives in each well of the 96-wel plate were shown below.
The plate was incubated at 32° C. for one day. Then 20 μl of alamar blue (0.01%) was added into each well with a further incubation for one day to observe the color change. Red color indicates microbial growth and the non-changing blue color indicates no growth.
The MIC is defined as the absolute lowest concentration of active that provides complete microbial growth inhibition as indicated by the blue color of alamar blue under the tested condition. […]

This is an account of results in US20210283035A1, “AN ANTIMICROBIAL COMPOSITION” (Conopco, Inc., d/b/a UNILEVER, priority 2016, published 2021).

`O=C(c1ccccc1)c1ccc(O)cc1O` [benzophenone-1]: the MIC is 500 µg/mL.
`O=C(c1ccc(O)cc1O)c1ccc(O)cc1O` [benzophenone-2]: the MIC was 1000 µg/mL.
